Test results reported in ChEMBL document CHEMBL5126603, “Discovery of Clinical Candidate CHF-6366: A Novel Super-soft Dual Pharmacology Muscarinic Antagonist and β2 Agonist (MABA) for the Inhaled Treatment of Respiratory Diseases” (J Med Chem, 2022).

Tests used:
[1] = system: Trachea; test: Bifunctional antagonist activity at muscarinic M3 receptor /agonist activity at beta-2 adrenoceptor in Dunkin-Hartley guinea pig trachea assessed as inhibition of acetylcholine-induced bronchoconstriction at 0.3 nmol/Kg, IT(Intratracheal) measured after 30 mins by Konzett-Roessler methodology relative to control; format: functional; conditions: Cavia porcellus, 0.5 h
[2] = system: Trachea; test: Bifunctional antagonist activity at muscarinic M3 receptor /agonist activity at beta-2 adrenoceptor in Dunkin-Hartley guinea pig trachea assessed as inhibition of acetylcholine-induced bronchoconstriction at 0.1 nmol/Kg, IT(Intratracheal) measured after 30 mins by Konzett-Roessler methodology relative to control; format: functional; conditions: Cavia porcellus, 0.5 h
[3] = Metabolic stability in Dunkin-Hartley guinea pig plasma assessed as half life at 5 uM measured upto 120 mins by LC-MS/MS analysis; format: ADME, cell-free, Cavia porcellus
[4] = Mutagenicity in Salmonella typhimurium assessed as induction of reverse mutation by Ames test; format: toxicity; conditions: salmonella enterica subsp. enterica serovar typhimurium
[5] = In vivo antagonist activity at muscarinic M3 receptor in Dunkin-Hartley guinea pig trachea assessed as inhibition of acetylcholine induced bronchoconstriction at 1 nmol/Kg, IT(Intratracheal) measured after 24 hr in presence of ICI-118551 by Konzett-Roessler methodology relative to control; format: functional; conditions: Cavia porcellus
[6] = AUCinfinity in Dunkin-Hartley guinea pig lung at 500 nmol/Kg, IT(Intratracheal) measured after 72 hrs by LC/MS-MS analysis; format: ADME, tissue-based, Cavia porcellus; design: dose 500 nmol/kg, time 72 hrs, route it(Intratracheal); conditions: in vivo, inhaled_or_intranasal
[7] = Metabolic stability in rat plasma assessed as half life at 5 uM measured upto 120 mins by LC-MS/MS analysis; format: ADME, cell-free
[8] = Tmax in Dunkin-Hartley guinea pig plasma at 500 nmol/Kg, IT(Intratracheal) measured after 72 hrs by LC/MS-MS analysis; format: ADME, cell-free, Cavia porcellus; conditions: inhaled or intranasal
[9] = system: Trachea; test: Bifunctional antagonist activity at muscarinic M3 receptor /agonist activity at beta-2 adrenoceptor in Dunkin-Hartley guinea pig trachea assessed as inhibition of acetylcholine-induced bronchoconstriction at 1 nmol/Kg, IT(Intratracheal) measured after 15 mins by Konzett-Roessler methodology relative to control; format: functional; conditions: Cavia porcellus, 0.25 h
[10] = system: Trachea; test: Bifunctional antagonist activity at muscarinic M3 receptor /agonist activity at beta-2 adrenoceptor in Dunkin-Hartley guinea pig trachea assessed as inhibition of acetylcholine-induced bronchoconstriction at 0.1 nmol/Kg, IT(Intratracheal) measured after 15 mins by Konzett-Roessler methodology relative to control; format: functional; conditions: Cavia porcellus, 0.25 h
[11] = system: Trachea; test: Bifunctional antagonist activity at muscarinic M3 receptor /agonist activity at beta-2 adrenoceptor in Dunkin-Hartley guinea pig trachea assessed as inhibition of acetylcholine-induced bronchoconstriction at 0.3 nmol/Kg, IT(Intratracheal) measured after 15 mins by Konzett-Roessler methodology relative to control; format: functional; conditions: Cavia porcellus, 0.25 h
[12] = AUClast in Dunkin-Hartley guinea pig lung at 500 nmol/Kg, IT(Intratracheal) measured after 72 hrs by LC/MS-MS analysis; format: ADME, tissue-based, Cavia porcellus; conditions: in vivo, inhaled_or_intranasal
[13] = system: Trachea; test: In vivo bifunctional antagonist activity at muscarinic M3 receptor /agonist activity at beta-2 adrenoceptor in Dunkin-Hartley guinea pig trachea assessed as inhibition of carbachol induced contraction; format: functional, tissue-based; conditions: Cavia porcellus
[14] = target: 5-hydroxytryptamine receptor 1B (Homo sapiens) (UniProt P28222); test: Inhibition of 5-HT1B receptor (unknown origin) at 10 uM relative to control
Chain of 5-hydroxytryptamine receptor 1B (Homo sapiens) (P28222 whole entry): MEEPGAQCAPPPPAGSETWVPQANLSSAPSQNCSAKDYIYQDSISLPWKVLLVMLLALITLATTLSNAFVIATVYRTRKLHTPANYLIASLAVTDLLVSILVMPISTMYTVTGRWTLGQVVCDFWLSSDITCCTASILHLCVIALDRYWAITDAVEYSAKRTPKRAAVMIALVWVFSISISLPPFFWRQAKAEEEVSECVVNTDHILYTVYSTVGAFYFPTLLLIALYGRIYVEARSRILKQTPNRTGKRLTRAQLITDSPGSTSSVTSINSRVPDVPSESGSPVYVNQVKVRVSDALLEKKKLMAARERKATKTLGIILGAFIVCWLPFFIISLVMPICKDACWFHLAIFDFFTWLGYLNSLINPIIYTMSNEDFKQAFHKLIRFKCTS

[15] = Metabolic stability in human plasma assessed as half life at 5 uM measured upto 120 mins by LC-MS/MS analysis; format: ADME, cell-free
[16] = Half life in Dunkin-Hartley guinea pig lung at 500 nmol/Kg, IT(Intratracheal) measured after 72 hrs by LC/MS-MS analysis; format: ADME, tissue-based, Cavia porcellus; conditions: inhaled or intranasal
[17] = system: Trachea; test: Bifunctional antagonist activity at muscarinic M3 receptor /agonist activity at beta-2 adrenoceptor in Dunkin-Hartley guinea pig trachea assessed as inhibition of acetylcholine-induced bronchoconstriction at 0.1 nmol/Kg, IT(Intratracheal) measured after 5 mins by Konzett-Roessler methodology relative to control; format: functional; conditions: Cavia porcellus
[18] = system: Trachea; test: Bifunctional antagonist activity at muscarinic M3 receptor /agonist activity at beta-2 adrenoceptor in Dunkin-Hartley guinea pig trachea assessed as inhibition of acetylcholine induced bronchoconstriction at 1 nmol/Kg, IT(Intratracheal) measured after 1 hr by Konzett-Roessler methodology relative to control; format: functional; conditions: Cavia porcellus
[19] = Mutagenicity in Escherichia coli assessed as induction of reverse mutation by Ames test; format: toxicity
[20] = Efflux ratio of apparent permeability from basolateral to apical side over apical to basolateral side in human Caco-2 cells at 10 uM and measured after 2 hrs by LC-MS/MS analysis; format: ADME, cell-based
[21] = In vivo agonist activity at beta-2 adrenoceptor in Dunkin-Hartley guinea pig trachea assessed as inhibition of histamine induced bronchoconstriction at 1 nmol/Kg, IT(Intratracheal) measured after 1 hr by Konzett-Roessler methodology relative to control; format: functional; conditions: Cavia porcellus
[22] = Half life in Dunkin-Hartley guinea pig plasma at 500 nmol/Kg, IT(Intratracheal) measured after 72 hrs by LC/MS-MS analysis; format: ADME, cell-free, Cavia porcellus; conditions: inhaled or intranasal
[23] = system: Trachea; test: Bifunctional antagonist activity at muscarinic M3 receptor /agonist activity at beta-2 adrenoceptor in Dunkin-Hartley guinea pig trachea assessed as inhibition of acetylcholine-induced bronchoconstriction at 0.3 nmol/Kg, IT(Intratracheal) measured after 5 mins by Konzett-Roessler methodology relative to control; format: functional; conditions: Cavia porcellus
[24] = Cmax in Dunkin-Hartley guinea pig plasma at 500 nmol/Kg, IT(Intratracheal) measured after 72 hrs by LC/MS-MS analysis; format: ADME, cell-free, Cavia porcellus; design: dose 500 nmol/kg, time 72 hrs, route it(Intratracheal); conditions: inhaled or intranasal
[25] = In vivo antagonist activity at muscarinic M3 receptor in Dunkin-Hartley guinea pig trachea assessed as inhibition of acetylcholine induced bronchoconstriction at 0.3 nmol/Kg, IT(Intratracheal) measured after 24 hr in presence of ICI-118551 by Konzett-Roessler methodology relative to control; format: functional; conditions: Cavia porcellus
[26] = Toxicity in INH dosed dog assessed as maximum tolerated dose measured after 7 days; format: organism-based, Canis lupus familiaris; conditions: in vivo, inhaled or intranasal, time 7 day
[27] = target: D(2) dopamine receptor (Homo sapiens) (UniProt P14416); test: Inhibition of dopamine D2 receptor (unknown origin) at 10 uM relative to control
Chain of D(2) dopamine receptor (Homo sapiens) (P14416 whole entry): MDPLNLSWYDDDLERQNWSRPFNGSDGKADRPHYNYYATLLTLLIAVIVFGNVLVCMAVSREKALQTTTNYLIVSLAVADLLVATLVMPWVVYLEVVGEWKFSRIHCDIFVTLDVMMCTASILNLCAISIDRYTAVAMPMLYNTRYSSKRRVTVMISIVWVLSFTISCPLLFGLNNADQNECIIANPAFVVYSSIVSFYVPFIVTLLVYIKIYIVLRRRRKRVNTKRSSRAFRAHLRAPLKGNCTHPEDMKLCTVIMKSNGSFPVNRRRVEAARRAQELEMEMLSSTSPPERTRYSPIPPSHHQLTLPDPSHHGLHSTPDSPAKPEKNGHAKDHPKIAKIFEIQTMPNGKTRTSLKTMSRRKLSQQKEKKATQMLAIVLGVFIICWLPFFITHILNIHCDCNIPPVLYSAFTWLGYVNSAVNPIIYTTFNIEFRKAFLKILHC

[28] = In vivo antagonist activity at muscarinic M3 receptor in Dunkin-Hartley guinea pig trachea assessed as inhibition of acetylcholine induced bronchoconstriction at 1 nmol/Kg, IT(Intratracheal) measured after 1 hr in presence of ICI-118551 by Konzett-Roessler methodology relative to control; format: functional; conditions: Cavia porcellus

## Cn1nc(C(=O)OCCCCNC[C@H](O)c2ccc(O)c3[nH]c(=O)ccc23)cc1COc1cccc([C@@H](NC(=O)O[C@H]2CN3CCC2CC3)c2ccccc2)c1
[1]
  inhibition in vivo at 0.0003 µmol/kg: 65.9%
[2]
  inhibition in vivo at 0.0001 µmol/kg: 33.1%
[3]
  half-life at 5 µM: 34 min
[4]
  Activity: Non-Toxic
[5]
  inhibition in vivo at 0.001 µmol/kg: 47.2%
[6]
  AUC: 725199 ng·h/g
[7]
  half-life at 5 µM: < 5 min
[8]
  Tmax: 4.98 min
[9]
  inhibition in vivo at 0.001 µmol/kg: 91.3%
[10]
  inhibition in vivo at 0.0001 µmol/kg: 25.1%
[11]
  inhibition in vivo at 0.0003 µmol/kg: 66.2%
[12]
  AUClast: 460361 ng·h/g
[13]
  IC50: 0.316 nM
[14]
  inhibition: > 65%
[15]
  half-life at 5 µM: 20 min
[16]
  half-life: 49.2 h
[17]
  inhibition in vivo at 0.0001 µmol/kg: 9.7%
[18]
  inhibition in vivo at 0.001 µmol/kg: 92.4%
[19]
  Activity: Non-Toxic
[20]
  efflux ratio at 2 h, 10 µM: 0.7
[21]
  inhibition in vivo at 0.001 µmol/kg: 69.8%
[22]
  half-life: 924 min
[23]
  inhibition in vivo at 0.0003 µmol/kg: 56.6%
[24]
  Cmax: 126 ng/g
[25]
  inhibition in vivo at 0.0003 µmol/kg: 30.1%
[26]
  MTD at 168 h: 0.124 mg/kg/day
[27]
  inhibition: > 65%
[28]
  inhibition in vivo at 0.001 µmol/kg: 84.1%
